Results reported in the supplement of paper PMC6045584.
± gives the standard deviation of the averaged measurements.

Key:
[1] = compound: CCc1cc(Nc2nccc(-c3c(-c4ccc(OC)c(C(=O)Nc5c(F)cccc5F)c4)nc4ccccn34)n2)c(OC)cc1N1CCC(N2CCN(S(C)(=O)=O)CC2)CC1; test: surviving fraction relative to DMSO-only wells; higher = less growth inhibition; settings: exposure time: 5 days
Method in brief: (§1)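 Log-phase tumour cell lines, 250–500 cells per well in 384-well plates, received inhibitors at 0.5, 1, 5, 10, 50, 100, 500 and 1000 nM continuously for five days, starting 24 hours after seeding. Viability was quantified with CellTiter-Glo luminescence and normalised to the median of DMSO-only wells to give surviving fraction. Three screens were run per line, and a line stayed in only with replicate Pearson r >0.7 and median Z' >0.3.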

[2] = compound: C[C@H](CN(C)C)Oc1nc(Nc2cc3cccc(Cl)c3cn2)cnc1C#N; test: as above; settings: exposure time: 5 days
Method in brief: as §1

| Test System | surviving fraction ([1]; 0.5 nM) | surviving fraction ([1]; 1 nM) | surviving fraction ([1]; 5 nM) | surviving fraction ([1]; 10 nM) | surviving fraction ([1]; 50 nM) | surviving fraction ([1]; 100 nM) | surviving fraction ([1]; 500 nM) | surviving fraction ([1]; 1000 nM) | surviving fraction ([2]; 0.5 nM) | surviving fraction ([2]; 1 nM) | surviving fraction ([2]; 5 nM) | surviving fraction ([2]; 10 nM) | surviving fraction ([2]; 50 nM) | surviving fraction ([2]; 100 nM) | surviving fraction ([2]; 500 nM) | surviving fraction ([2]; 1000 nM) |
| --- | --- | --- | --- | --- | --- | --- | --- | --- | --- | --- | --- | --- | --- | --- | --- | --- |
| 22RV1 PROSTATE | 1 ± 0.014 | 1.02 ± 0.023 | 0.989 ± 0.014 | 0.953 ± 0.026 | 1.01 ± 0.024 | 0.991 ± 0.057 | 0.989 ± 0.033 | 0.946 ± 0.042 | 1.15 ± 0.15 | 1.02 ± 0.071 | 1.01 ± 0.074 | 1.06 ± 0.15 | 0.999 ± 0.046 | 0.887 ± 0.14 | 1.03 ± 0.037 | 0.838 ± 0.12 |
| 93VU HEADNECK | 1.03 ± 0.062 | 1.09 ± 0.15 | 1.1 ± 0.21 | 1.12 ± 0.063 | 1.11 ± 0.033 | 1.05 ± 0.089 | 0.932 ± 0.051 | 0.936 ± 0.094 | 0.995 ± 0.04 | 1.04 ± 0.079 | 1.04 ± 0.06 | 1.09 ± 0.039 | 1.03 ± 0.11 | 1.14 ± 0.1 | 0.865 ± 0.066 | 0.976 ± 0.09 |
| 143B BONE | 0.985 ± 0.033 | 0.959 ± 0.086 | 0.928 ± 0.13 | 1.03 ± 0.031 | 0.9995 ± 0.0035 | 0.996 ± 0.052 | 0.999 ± 0.0042 | 0.959 ± 0.023 | 0.939 ± 0.1 | 1.08 ± 0.053 | 1.08 ± 0.035 | 1.05 ± 0.012 | 1.026 ± 0.0092 | 1.05 ± 0.024 | 0.519 ± 0.031 | 0.078 ± 0.021 |
| A549 LUNG | 0.954 ± 0.022 | 0.994 ± 0.045 | 0.995 ± 0.032 | 1.02 ± 0.033 | 0.983 ± 0.029 | 1.04 ± 0.036 | 1.01 ± 0.042 | 1.01 ± 0.034 | 1.04 ± 0.03 | 1.02 ± 0.02 | 1.02 ± 0.024 | 0.994 ± 0.018 | 1.09 ± 0.039 | 1.06 ± 0.039 | 0.967 ± 0.02 | 0.601 ± 0.027 |
| ASKA SYNOVIAL | 1.16 ± 0.063 | 1.17 ± 0.057 | 1.27 ± 0.088 | 1.16 ± 0.1 | 1.19 ± 0.017 | 1.2 ± 0.03 | 1.18 ± 0.03 | 1.04 ± 0.094 | 1.05 ± 0.055 | 1.13 ± 0.083 | 1.11 ± 0.087 | 1.06 ± 0.082 | 0.994 ± 0.061 | 0.852 ± 0.041 | 0.432 ± 0.032 | 0.438 ± 0.0075 |
| BT20 BREAST | 1.06 ± 0.11 | 1.01 ± 0.086 | 1.09 ± 0.018 | 1.13 ± 0.14 | 0.932 ± 0.068 | 0.941 ± 0.036 | 0.825 ± 0.074 | 0.707 ± 0.029 | 1.14 ± 0.095 | 1.15 ± 0.081 | 1.22 ± 0.083 | 1.14 ± 0.072 | 1.19 ± 0.093 | 1.31 ± 0.072 | 1.35 ± 0.079 | 1.21 ± 0.093 |
| BT549 BREAST | 1.03 ± 0.098 | 1.06 ± 0.033 | 1.14 ± 0.097 | 1.13 ± 0.082 | 1.07 ± 0.1 | 1.12 ± 0.1 | 1.08 ± 0.074 | 0.852 ± 0.019 | 1.12 ± 0.055 | 1.14 ± 0.12 | 1.05 ± 0.1 | 1.1 ± 0.044 | 1.1 ± 0.076 | 0.896 ± 0.095 | 0.141 ± 0.024 | 0.0517 ± 0.011 |
| C33A CERVIX | 0.755 ± 0.047 | 0.874 ± 0.086 | 1 ± 0.057 | 0.892 ± 0.11 | 1.01 ± 0.11 | 0.952 ± 0.031 | 0.832 ± 0.062 | 0.793 ± 0.051 | 0.856 ± 0.057 | 0.979 ± 0.11 | 0.903 ± 0.041 | 0.994 ± 0.094 | 0.97 ± 0.074 | 0.937 ± 0.14 | 0.524 ± 0.04 | 0.814 ± 0.054 |
| CADOES1 SOFT TISSUE | 0.983 ± 0.048 | 0.983 ± 0.065 | 0.892 ± 0.12 | 0.885 ± 0.04 | 0.87 ± 0.1 | 1.05 ± 0.12 | 1.06 ± 0.12 | 1.08 ± 0.042 | 0.789 ± 0.054 | 0.94 ± 0.018 | 0.867 ± 0.069 | 0.894 ± 0.031 | 0.814 ± 0.14 | 0.726 ± 0.056 | 0.294 ± 0.048 | 0.148 ± 0.015 |
| CAL51 BREAST | 0.995 ± 0.06 | 1 ± 0.025 | 0.998 ± 0.029 | 1.03 ± 0.068 | 1.02 ± 0.017 | 1.04 ± 0.05 | 1.03 ± 0.043 | 1.03 ± 0.042 | 0.939 ± 0.051 | 0.961 ± 0.065 | 1.03 ± 0.025 | 0.922 ± 0.047 | 0.982 ± 0.062 | 0.855 ± 0.053 | 0.272 ± 0.049 | 0.123 ± 0.037 |
| CAL72 BONE | 1.06 ± 0.033 | 1.02 ± 0.026 | 1.03 ± 0.017 | 1.05 ± 0.025 | 1.08 ± 0.035 | 1.12 ± 0.032 | 1.13 ± 0.029 | 1.13 ± 0.033 | 1.06 ± 0.1 | 1.08 ± 0.13 | 1.06 ± 0.099 | 1.03 ± 0.12 | 1.09 ± 0.1 | 0.981 ± 0.12 | 0.402 ± 0.076 | 0.137 ± 0.037 |
| CAL120 BREAST | 0.944 ± 0.013 | 0.9663 ± 0.0055 | 0.968 ± 0.013 | 0.976 ± 0.032 | 0.976 ± 0.032 | 0.977 ± 0.024 | 0.944 ± 0.031 | 0.945 ± 0.021 | 0.928 ± 0.063 | 0.922 ± 0.076 | 0.965 ± 0.057 | 0.934 ± 0.047 | 0.957 ± 0.069 | 0.917 ± 0.03 | 0.9 ± 0.07 | 0.745 ± 0.027 |
| CASKI CERVIX | 0.937 ± 0.051 | 0.949 ± 0.055 | 0.97 ± 0.048 | 0.979 ± 0.04 | 0.946 ± 0.015 | 1.01 ± 0.043 | 0.967 ± 0.07 | 0.88 ± 0.039 | 0.839 ± 0.052 | 0.909 ± 0.086 | 0.959 ± 0.032 | 0.922 ± 0.02 | 1.009 ± 0.01 | 0.9417 ± 0.0087 | 0.217 ± 0.011 | 0.12 ± 0.01 |
| CHLA90 AUTONOMIC GANGLIA | 0.955 ± 0.039 | 1 ± 0.011 | 0.969 ± 0.054 | 0.932 ± 0.028 | 0.9353 ± 0.0021 | 0.94 ± 0.05 | 0.986 ± 0.031 | 0.952 ± 0.055 | 0.977 ± 0.064 | 0.961 ± 0.058 | 0.913 ± 0.041 | 0.912 ± 0.034 | 0.94 ± 0.048 | 0.904 ± 0.075 | 0.46 ± 0.084 | 0.236 ± 0.048 |
| CME SYNOVIAL | 1.4 ± 0.11 | 1.39 ± 0.21 | 1.39 ± 0.19 | 1.23 ± 0.05 | 1.36 ± 0.22 | 1.31 ± 0.089 | 0.913 ± 0.11 | 0.507 ± 0.034 | 1.21 ± 0.15 | 1.3 ± 0.16 | 1.28 ± 0.11 | 1.36 ± 0.18 | 1.32 ± 0.11 | 1.47 ± 0.17 | 1.14 ± 0.059 | 1.02 ± 0.15 |
| COLO320DM LARGE INTESTINE | 1.08 ± 0.04 | 1.18 ± 0.11 | 1.17 ± 0.06 | 1.19 ± 0.071 | 1.19 ± 0.09 | 1.14 ± 0.095 | 1.11 ± 0.061 | 0.892 ± 0.041 | 1.04 ± 0.17 | 1.07 ± 0.09 | 1.01 ± 0.069 | 1.13 ± 0.068 | 1.06 ± 0.066 | 0.896 ± 0.084 | 0.235 ± 0.027 | 0.154 ± 0.027 |
| DU4475 BREAST | 0.866 ± 0.12 | 0.937 ± 0.041 | 0.819 ± 0.072 | 1 ± 0.06 | 0.977 ± 0.28 | 0.832 ± 0.27 | 1.11 ± 0.34 | 1.19 ± 0.24 | 1 ± 0.29 | 0.794 ± 0.19 | 0.918 ± 0.04 | 0.753 ± 0.064 | 0.777 ± 0.2 | 1.18 ± 0.25 | 0.476 ± 0.076 | 0.337 ± 0.095 |
| H23 LUNG | 0.939 ± 0.042 | 1.02 ± 0.032 | 0.973 ± 0.012 | 1.06 ± 0.078 | 0.997 ± 0.014 | 1.02 ± 0.038 | 1.02 ± 0.029 | 1 ± 0.032 | 1 ± 0.058 | 0.99 ± 0.033 | 1 ± 0.064 | 0.989 ± 0.024 | 1.06 ± 0.082 | 1.02 ± 0.038 | 1 ± 0.092 | 0.919 ± 0.079 |
| HCC78 LUNG | 0.893 ± 0.21 | 0.819 ± 0.18 | 0.91 ± 0.14 | 0.859 ± 0.05 | 0.899 ± 0.32 | 0.864 ± 0.051 | 0.653 ± 0.19 | 0.657 ± 0.14 | 0.677 ± 0.09 | 0.908 ± 0.11 | 0.832 ± 0.17 | 0.984 ± 0.022 | 0.832 ± 0.15 | 0.919 ± 0.12 | 0.317 ± 0.1 | 0.131 ± 0.041 |
| HCC202 BREAST | 1.11 ± 0.32 | 1.27 ± 0.15 | 1.21 ± 0.21 | 1.14 ± 0.17 | 1.4 ± 0.18 | 1.25 ± 0.13 | 1.14 ± 0.15 | 1.18 ± 0.05 | 1.08 ± 0.39 | 1.03 ± 0.41 | 1.22 ± 0.065 | 1.01 ± 0.022 | 0.984 ± 0.052 | 0.886 ± 0.34 | 0.413 ± 0.071 | 0.376 ± 0.04 |
